Laboratory results from patent publication US12234245B2, “Sulfonimidamide compounds as inhibitors of interleukin-1 activity” (Genentech, Inc., priority 2018, dated 2025).
pIC50: −log10 of the molar value. Read-outs that look alike come from different tables or passages of the source.

Key:
Format in all cases: cell-based
NLRP3 inflammasome [1] = target: T1, NLRP3 inflammasome (Homo sapiens, UniProt Q96P20); test: NLRP3 inflammasome activation assay in PBMCs, IL-1β release (ELISA / HTRF); set-up: were freshly isolated from human peripheral blood from healthy donors; StemCells Technologies; host or cells: primary human PBMCs, LPS-primed, nigericin-stimulated; settings: LPS primed
T1 sequence (Q96P20 whole entry): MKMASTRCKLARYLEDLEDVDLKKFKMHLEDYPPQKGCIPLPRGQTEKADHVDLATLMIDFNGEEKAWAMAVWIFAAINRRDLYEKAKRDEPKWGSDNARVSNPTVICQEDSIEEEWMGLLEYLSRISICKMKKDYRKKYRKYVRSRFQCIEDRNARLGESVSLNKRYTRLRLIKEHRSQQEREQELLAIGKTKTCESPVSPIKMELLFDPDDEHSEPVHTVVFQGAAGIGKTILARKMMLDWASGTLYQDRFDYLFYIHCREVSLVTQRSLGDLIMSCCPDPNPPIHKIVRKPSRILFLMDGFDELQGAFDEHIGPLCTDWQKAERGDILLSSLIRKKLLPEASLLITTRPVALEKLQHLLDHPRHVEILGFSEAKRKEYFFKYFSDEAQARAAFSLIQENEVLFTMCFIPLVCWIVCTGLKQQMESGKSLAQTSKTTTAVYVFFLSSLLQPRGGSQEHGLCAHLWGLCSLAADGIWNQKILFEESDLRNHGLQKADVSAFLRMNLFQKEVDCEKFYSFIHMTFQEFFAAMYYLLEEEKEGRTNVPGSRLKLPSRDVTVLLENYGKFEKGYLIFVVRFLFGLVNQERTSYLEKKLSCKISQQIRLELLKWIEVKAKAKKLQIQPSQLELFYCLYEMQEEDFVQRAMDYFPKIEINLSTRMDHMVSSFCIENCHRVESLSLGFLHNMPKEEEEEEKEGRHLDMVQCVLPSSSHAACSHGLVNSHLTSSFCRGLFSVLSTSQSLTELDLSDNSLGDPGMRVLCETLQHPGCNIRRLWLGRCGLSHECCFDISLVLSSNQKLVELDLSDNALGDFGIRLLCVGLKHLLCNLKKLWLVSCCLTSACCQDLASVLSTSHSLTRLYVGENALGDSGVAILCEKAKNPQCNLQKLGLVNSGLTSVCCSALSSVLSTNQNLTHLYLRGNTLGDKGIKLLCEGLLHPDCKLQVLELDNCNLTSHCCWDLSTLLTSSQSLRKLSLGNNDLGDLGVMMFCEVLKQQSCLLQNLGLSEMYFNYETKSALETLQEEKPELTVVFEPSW
Procedure, shortened: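 Human PBMCs primed with 100 ng/mL LPS for 3 h, pre-treated with compound for 30 min (0.00017–10 µM, or from 40 µM in 2-fold 20-point series), then stimulated with 10 µM nigericin for 1.5 h at 37 °C. Released IL-1β in supernatant quantified by ELISA or by HTRF (665/620 ratio, overnight RT).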

TNFα = TNFα counter-screen in LPS and nigericin stimulated PBMCs; settings: human PBMCs
Method: (§1) Human peripheral blood mononuclear cells (PBMCs), consisting of lymphocytes (T, B and NK cells), monocytes and dendritic cells, were freshly isolated from human peripheral blood from healthy donors. Cells were obtained through an IRB approved donor program by iXCells Biotechnologies where all the donors were tested for bacterial and viral infections. Cells were purified from peripheral blood using ficoll gradient centrifugation.
(§2) Fresh or cryopreserved PMBCs were seeded in V-bottom 96-well plate at 0.5-1×10^5 cells per well and incubated overnight at 37° C. with 5% CO2 in RPMI 1640 medium with GlutaMAX supplement, 4.5 g/L D-glucose, 10% Fetal Bovine Serum (FBS), […] Sodium Pyruvate, 1% Penicillin/Streptomycin, 10 mM HEPES and 0.05 mM of β-mercaptoethanol. Freshly isolated or cryopreserved KCs cells were seeded in flat-bottom 96-well plates at 0.6-1.5×10^5 cells/well and incubated overnight at 37° C. 5% CO2 in RPMI 1640 Medium with GlutaMAX supplement, FBS, 1% Penicillin/Streptomycin and 10 mM HEPES. The following day, the cells were primed with 100 ng/mL of lipopolysaccharides (LPS; Sigma Aldrich) in FBS-free RPMI 1640 for 3 h. After the priming step, the media was removed and PBMCs were pre-incubated with serial concentrations of test compounds (0.00017-10 uM) or vehicle (DMSO) for 30 min in FBS-free media prior to addition of the NLRP3 activator. Cells were then stimulated with 10 uM Nigericin (Sigma Aldrich; InvivoGen) for 1.5 h. Plates were centrifuged at 1,500 rpm for 3 minutes to pellet cells and supernatant was transferred into new plates for subsequent experiments.
For ELISA assays cells were seeded into 96-well plates. Post study, supernatants were removed and the levels of mature IL-1β, IL18 and TNFα (Quantikine ELISA, R&D systems) were measured in cell conditioned media by ELISA according to manufacturer's instructions.
TNFα levels of LPS and nigericin stimulated cells were measured by HTRF assay (Cisbio, Bedford, MA). […] Measuring TNFalpha production also serves as a technical counter-screen to eliminate compounds that interfere with the HTRF reagents. Thus compounds that inhibit both IL-1β and TNFα levels are triaged for either being non-selective for inflammasome or interfering with the HTRF readout.

PBMCs = test: CTG (CellTiter-Glo) viability assay in PBMCs; settings: LPS and nigericin stimulated
Method: as §1, §2
Viability of compound treated cells was measured using CellTiter-Glo® assay (Promega, Madison, Wis.) that measures the ATP content of cells which is proportional to the number of live cells within a well. This is a counter-screen to establish that the reduction of IL-1β levels in LPS and nigericin stimulated and compound treated cells is not due to cytotoxicity, but rather through the inhibition of the inflammasome pathway. Compounds inhibiting NRLP3 inflammasome activation ultimately increase the viability of LPS and nigericin stimulated cells by blocking NLRP3 mediated pyroptosis that would otherwise lead to cell lysis.

NLRP3 inflammasome [2] = target: T1, NLRP3 inflammasome; test: THP-1 ASC-GFP speck assay; set-up: host or cells: THP-1 ASC-GFP cells, PMA-differentiated, LPS-primed, nigericin-stimulated; settings: THP-1 ASC-GFP cells, PMA differentiated, LPS primed, 10 μM nigericin; read-out: THP1 ASC Speck IC50
Procedure, shortened: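 PMA-differentiated (500 ng/ml, overnight) THP-1 ASC-GFP cells primed with 1 μg/mL LPS for 3 h, preincubated 30 min with compound (top 40 μM, 2-fold, 20 points), then stimulated with 10 μM nigericin for 90 min at 37 °C. After fixation and Hoechst staining, imaging gave the percentage of cells bearing a GFP ASC speck.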

[3] = 10 μM nigericin, read-out: PBMC IL-1β IC50
[4] = human PBMCs, read-out: PBMC CTG IC50
[5] = 10 uM nigericin, read-out: PBMC IL-1 β IC50
[6] = PBMC, read-out: PBMC TNF α IC50

Row | Structure (SMILES) | pIC50 (NLRP3 inflammasome [1]; [3]) | pIC50 (TNFα; PBMC) | pIC50 (PBMCs; Homo sapiens, PBMC) | pIC50 (NLRP3 inflammasome [2]) | pIC50 (PBMCs; [4]) | pIC50 (TNFα; read-out: PBMC TNFα IC50) | pIC50 (NLRP3 inflammasome [1]; [5]) | pIC50 (TNFα; [6]) | pIC50 (TNFα; read-out: PBMC TNF α IC50)
1 | CN[C@@H]1COc2c(S(N)(=O)=NC(=O)Nc3c(C(C)C)cc(F)cc3C(C)C)cnn2C1 (mixture of isomers) [Example 16, (6S)—N′-((4-fluoro-2,6-diisopropylphenyl)carbamoyl)-6-(methylamino)-6,7-dihydro-5H-pyrazolo[5,1-b][1,3]oxazine-3-sulfonimidamide] | 6.57 | < 5.00 | 6.88 |  |  |  |  |  | 
2 | CN[C@@H]1COc2c(S(N)(=O)=NC(=O)Nc3c4c(cc5c3CCC5)CCC4)cnn2C1 (mixture of isomers) [Example 17, (6S)—N′-((1,2,3,5,6,7-hexahydro-s-indacen-4-yl)carbamoyl)-6-(methylamino)-6,7-dihydro-5H-pyrazolo[5,1-b][1,3]oxazine-3-sulfonimidamide] | 7.72 | < 5.00 | 8.10 |  |  |  |  |  | 
3 | CO[C@@H]1COc2c(S(N)(=O)=NC(=O)Nc3c4c(c(F)c5c3CCC5)CCC4)cnn2C1 (mixture of isomers) [Example 18, (6S)—N′-((8-fluoro-1,2,3,5,6,7-hexahydro-s-indacen-4-yl)carbamoyl)-6-methoxy-6,7-dihydro-5H-pyrazolo[5,1-b][1,3]oxazine-3-sulfonimidamide] | 7.80 | < 5.00 | 10.00 |  |  |  |  |  | 
4 | NS(=O)(=NC(=O)Nc1c2c(c(F)c3c1CCC3)CCC2)c1cnn2c1OCC2 (racemic) [Example 29, N′-((8-fluoro-1,2,3,5,6,7-hexahydro-s-indacen-4-yl)carbamoyl)-2,3-dihydropyrazolo[5,1-b]oxazole-7-sulfonimidamide] | 7.03 | < 5.00 | 5.43 | 6.85 |  |  |  |  | 
5 | NS(=O)(=NC(=O)Nc1c2c(c(F)c3c1CCC3)CCC2)c1cnn2c1OCCCC2 (racemic) [Example 30, N′-((8-fluoro-1,2,3,5,6,7-hexahydro-s-indacen-4-yl)carbamoyl)-5,6,7,8-tetrahydropyrazolo[5,1-b][1,3]oxazepine-3-sulfonimidamide] | 7.17 | < 5.00 | < 5.00 | 6.44 |  |  |  |  | 
6 | NS(=O)(=NC(=O)Nc1c2c(cc3c1CCC3)CCC2)c1cnn2c1OCCC2 (single isomer, unassigned) [Example 13] | 7.46 | < 5.00 |  | 7.12 | 8.10 |  |  |  | 
7 | NS(=O)(=NC(=O)Nc1c2c(cc3c1CCC3)CCC2)c1cnn2c1OCCC2 (single isomer, unassigned) [Example 14] | 5.72 |  |  | 5.92 | 9.00 | < 5.00 |  |  | 
8 | COC1COc2c(S(N)(=O)=NC(=O)Nc3c4c(cc5c3CCC5)CCC4)cnn2C1 (single isomer, unassigned) [Example 19] | 5.95 | < 5.00 |  | 6.19 | 6.07 |  |  |  | 
9 | NS(=O)(=NC(=O)Nc1c2c(c(F)c3c1CCC3)CCC2)c1cnn2c1OCCC2 (single isomer, unassigned) [Example 21] | 5.33 | < 5.00 |  |  | 5.98 |  |  |  | 
10 | COC1COc2c(S(N)(=O)=NC(=O)Nc3c(C(C)C)cc(F)cc3C(C)C)cnn2C1 (single isomer, unassigned) [Example 23] | 5.05 | < 5.00 |  |  | 7.41 |  |  |  | 
11 | COC1COc2c(S(N)(=O)=NC(=O)Nc3c(C(C)C)cc(F)cc3C(C)C)cnn2C1 (single isomer, unassigned) [Example 24] | 6.62 |  |  |  | 6.90 | < 5.00 |  |  | 
12 | CNC1COc2c(S(N)(=O)=NC(=O)Nc3c(C(C)C)cc(F)cc3C(C)C)cnn2C1 (single isomer, unassigned) [Example 27] | 6.92 | < 5.00 | < 5.00 | 6.70 |  |  |  |  | 
13 | CN(C)C1COc2c(S(N)(=O)=NC(=O)Nc3c4c(cc5c3CCC5)CCC4)cnn2C1 (single isomer, unassigned) [Example 34] | 8.22 |  |  |  | 8.40 | < 5.00 |  |  | 
14 | NS(=O)(=NC(=O)Nc1c2c(cc3c1CCC3)CCC2)c1cnn2c1OCCC2 (single isomer, unassigned) [drawing 661] |  |  | > 7.00 |  |  |  | > 7.00 | < 5.00 | 
15 | N=S(=O)(NC(=O)Nc1c2c(cc3c1CCC3)CCC2)c1cnn2c1OCCC2 (single isomer, unassigned) [drawing 662] |  |  |  |  | > 7.00 |  | 5.00 to 6.00 |  | < 5.00
16 | NS(=O)(=NC(=O)Nc1c2c(c(F)c3c1CCC3)CCC2)c1cnn2c1OCCC2 (single isomer, unassigned) [drawing 669] |  |  | > 7.00 |  |  |  | > 7.00 | < 5.00 | 
17 | N=S(=O)(NC(=O)Nc1c2c(c(F)c3c1CCC3)CCC2)c1cnn2c1OCCC2 (single isomer, unassigned) [drawing 670] |  |  |  |  | 6.00 to 7.00 |  | 5.00 to 6.00 |  | < 5.00
18 | CN[C@@H]1COc2c(S(=N)(=O)NC(=O)Nc3c(C(C)C)cc(F)cc3C(C)C)cnn2C1 (single isomer, unassigned) [drawing 675] |  |  | < 5.00 |  |  |  | 6.00 to 7.00 | < 5.00 | 
19 | CO[C@@H]1COc2c(S(=N)(=O)NC(=O)Nc3c(C(C)C)cc(F)cc3C(C)C)cnn2C1 (stereo partly drawn) [drawing 663] |  |  | > 7.00 |  |  |  | 6.00 to 7.00 | < 5.00 | 
20 | CN[C@@H]1COc2c(S(=N)(=O)NC(=O)Nc3c4c(cc5c3CCC5)CCC4)cnn2C1 (stereo partly drawn) [drawing 665] |  |  | > 7.00 |  |  |  | > 7.00 | < 5.00 | 
21 | CO[C@@H]1COc2c(S(=N)(=O)NC(=O)Nc3c4c(c(F)c5c3CCC5)CCC4)cnn2C1 (stereo partly drawn) [drawing 666] |  |  | > 7.00 |  |  |  | > 7.00 | < 5.00 | 
22 | CO[C@@H]1COc2c(S(=N)(=O)NC(=O)Nc3c4c(cc5c3CCC5)CCC4)cnn2C1 (stereo partly drawn) [drawing 667] |  |  | 6.00 to 7.00 |  |  |  | 6.00 to 7.00 | < 5.00 | 
23 | CO[C@@H]1COc2c(S(=N)(=O)NC(=O)Nc3c(C(C)C)cc(F)cc3C(C)C)cnn2C1 (stereo partly drawn) [drawing 671] |  |  |  |  | > 7.00 |  | 5.00 to 6.00 |  | < 5.00
24 | CO[C@@H]1COc2c(S(=N)(=O)NC(=O)Nc3c(C(C)C)cc(F)cc3C(C)C)cnn2C1 (stereo partly drawn) [drawing 672] |  |  |  |  | 6.00 to 7.00 |  | 6.00 to 7.00 |  | < 5.00
25 | CO[C@@H]1COc2c(S(=N)(=O)NC(=O)Nc3c4c(c(F)c5c3CCC5)CCC4)cnn2C1 (stereo partly drawn) [drawing 679] |  |  |  |  | > 7.00 |  | 6.00 to 7.00 |  | < 5.00
26 | CO[C@@H]1COc2c(S(=N)(=O)NC(=O)Nc3c4c(c(F)c5c3CCC5)CCC4)cnn2C1 (stereo partly drawn) [drawing 680] |  |  |  |  | > 7.00 |  | > 7.00 |  | < 5.00
27 | CN(C)[C@@H]1COc2c(S(=N)(=O)NC(=O)Nc3c4c(cc5c3CCC5)CCC4)cnn2C1 (stereo partly drawn) [drawing 681] |  |  | > 7.00 |  |  |  | 6.00 to 7.00 | < 5.00 | 
28 | CN(C)[C@@H]1COc2c(S(=N)(=O)NC(=O)Nc3c4c(cc5c3CCC5)CCC4)cnn2C1 (stereo partly drawn) [drawing 682] |  |  |  |  | > 7.00 |  | > 7.00 |  | < 5.00
